Data on five compounds can be found in patent US7351874B2, “Mouse model for fatty acid amide-related neurobehaviors” (The Scripps Research Institute, priority 2001, dated 2008).

“Also recorded” adds a separate entry of the source. Bounds are passed on as bounds.

Series [1] has as its system FAAH−/− and FAAH+/+ mice. In words: Neurobehavioral assays taken together (hypomotility, analgesia, catalepsy, hypothermia). The class given is in vivo, mouse. The protocol: (§1) All drugs were administered intraperitoneal (ip) in a mixture of 1 part ethanol: 1 part EMULPHOR alcohol (GAF Corp.; New York N.Y.): 18 parts saline (10 μl/g body weight), except naloxone was administered ip in saline.
(§2) Locomotor activity was assessed by placing each mouse in a clear plexiglass cage (18×10×8.5 inches; l.w.h) that was marked in 7 cm square grids on the floor of the cage. The number of grids that were traversed by the hind paws was counted from 15 to 20 min post-injection. Nociception was assessed using the tail immersion assay, wherein each mouse was hand-held with approximately 1 cm of the tip of the tail immersed into a water bath maintained at 56.0° C. and the latency for the animal to withdraw its tail was scored. The cutoff was 15 sec, and the data were expressed as the percent maximum possible effect (% MPE), where % MPE=100×{(post-injection latency−pre-injection latency)/(15−pre-injection latency)}. Baseline thermal nociception was also analyzed using the hot plate test, wherein the latency to jump or lick/shake a hind paw was scored.
Catalepsy was evaluated using the bar test, in which the front paws of each subject were placed on a rod (0.75 cm diameter) that was elevated 4.5 cm above the surface. Mice that remained motionless with their paws on the bar for 10 sec (with the exception of respiratory movements) were scored as cataleptic. Rectal temperature was determined by inserting a thermocouple probe 1.2 cm into the rectum; the temperature was obtained using a telethermometer. […] Catalepsy and rectal temperature were assessed at 60 min post-injection unless otherwise indicated.

Series [2] concerns FAAH−/− and FAAH+/+ mice. In words: Locomotor activity (hypomotility), grid crossings 15 to 20 min post-injection. The class given is in vivo, mouse. Here is the method: as §1, §2
Series [3] relates to FAAH−/− and FAAH+/+ mice. In words: Tail immersion assay (antinociception). The format is in vivo, mouse. The protocol:
as §1, §2

In series [4] the test system is FAAH−/− and FAAH+/+ mice. In words: Catalepsy bar test. The class given is in vivo, mouse. Here is the method: as §1
(§3) Catalepsy was evaluated using the bar test, in which the front paws of each subject were placed on a rod (0.75 cm diameter) that was elevated 4.5 cm above the surface. Mice that remained motionless with their paws on the bar for 10 sec (with the exception of respiratory movements) were scored as cataleptic. Rectal temperature was determined by inserting a thermocouple probe 1.2 cm into the rectum; the temperature was obtained using a telethermometer. The pre-injection rectal temperatures for FAAH^+/+ (35.6±0.2° C., n=28) and FAAH^−/− mice (35.5±0.1° C., n=30) mice were equivalent. Catalepsy and rectal temperature were assessed at 60 min post-injection unless otherwise indicated.

In series [5] the test system is FAAH−/− and FAAH+/+ mice. In words: Rectal temperature (hypothermia). The class given is in vivo, mouse. Here is the method:
as §1, §3

Another series deals with FAAH−/− mice. In words: Overt cage behavior after anandamide. The class given is in vivo, mouse. The source says: If startled by sound or touch, the knockout mice reacted with brief fits of spastic movement, then quickly reentered a flattened, immobile state. Anandamide-treated FAAH^−/− mice remained immobile for 2 to 4 hr, depending on dose, after which they gradually reinitiated normal cage activities, including movement, rearing, and grooming.

The subject of series [6] is FAAH(−/−), FAAH-TG(+) and FAAH(−/−), FAAH-TG(−) mice. In words: Pharmacological effects of anandamide in mice with FAAH expression restricted to the nervous system. Conditions: 50 mg/kg i.p. The class given is in vivo, mouse. The protocol: Animals were tested at 20 minutes (A) and 60 minute (B and C) following treatment with anandamide. HT−=FAAH(+/−), FAAH-TG(−); KO+=FAAH(−/−), FAAH-TG(+); KO−=FAAH(−/−), FAAH-TG(−).
Exogenously applied and endogenously produced fatty acid amides induce a variety of behavioral effects in mammals, which may reflect either central or peripheral sites of action. In wild type mammals, FAAH is not only expressed in the central and peripheral nervous system, but also in a variety of non-nervous system peripheral tissues, including liver, kidney, and testis. […] To address this issue, the mouse FAAH cDNA was placed under the control of the neural specific enolase (NSE) promoter (Forss-Petter et al. (1990) Neuron 5, 187-197) and this construct was used to generate transgenic mice (mixed background of C57Bl/6 and Balb/c) by pronuclear injection methods following standard literature procedures (Gordon, J. W. (1993) Methods Enzymol. 225, 747-771). These animals were screened by Southern blotting for genomic incorporation of the FAAH gene and multiple FAAH-positive transgenic [FAAH-TG(+)] lines were identified. One of these FAAH-TG(+) lines was then crossed to mice heterozygotic for FAAH deletion [FAAH(+/−) mice]. To create representative mouse genotypes for biochemical and behavioral analysis, the following breeding pairs were set up: FAAH(+/−),FAAH-TG(+)×FAAH(−/−),FAAH-TG(−). […]

The conditions of series [7]: cited from earlier work.
Series [8] concerns FAAH−/−, FAAH+/− and FAAH+/+ mice. In words: Hot plate test, response latency before and after treatment. The class given is in vivo, mouse. Here is the method: as §2
To test whether enhanced levels of endogenous anandamide were responsible for the analgesia observed in FAAH^−/− mice, the pain responses of these animals and FAAH^+/+ mice were tested prior to and after treatment with vehicle or with SR141716A.
A general note: In hot-plate and tail-flick tests a longer latency is read as antinociception.

In series [9] the target is T1, fatty acid amide hydrolase (FAAH) (Mus musculus, UniProt O08914).
T1 construct: Brain and liver were isolated from homozygous wild type (FAAH^+/+), heterozygous (FAAH^+/−) and homozygous knockout (FAAH^−/−) mice; from tissue; host or cells: mouse brain and liver extracts (129SvJ-C57BL/6 intercross offspring)
T1 sequence (O08914 1-579): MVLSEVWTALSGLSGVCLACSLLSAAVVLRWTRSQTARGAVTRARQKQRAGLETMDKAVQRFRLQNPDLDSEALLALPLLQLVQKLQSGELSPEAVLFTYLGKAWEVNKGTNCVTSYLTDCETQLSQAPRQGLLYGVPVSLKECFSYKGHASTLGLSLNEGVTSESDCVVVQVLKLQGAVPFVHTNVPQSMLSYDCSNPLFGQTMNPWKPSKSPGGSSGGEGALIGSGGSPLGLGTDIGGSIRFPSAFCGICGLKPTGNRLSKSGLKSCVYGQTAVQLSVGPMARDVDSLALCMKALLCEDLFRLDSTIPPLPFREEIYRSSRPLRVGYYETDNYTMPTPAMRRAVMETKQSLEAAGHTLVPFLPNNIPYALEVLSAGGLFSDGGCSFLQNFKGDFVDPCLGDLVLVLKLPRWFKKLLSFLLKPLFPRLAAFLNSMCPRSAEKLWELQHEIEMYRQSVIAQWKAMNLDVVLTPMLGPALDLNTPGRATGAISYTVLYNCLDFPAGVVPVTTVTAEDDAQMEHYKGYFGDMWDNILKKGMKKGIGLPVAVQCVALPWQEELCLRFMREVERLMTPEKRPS
The series is described as follows: FAAH activity assay, conversion of 14C-labeled substrates by thin layer chromatography. As to conditions: pH 7.2. The format is biochemical. Here is the method: The mice also were examined for FAAH enzymatic activity. FAAH activity assays for oleamide and anandamide were measured by following the conversion of ^14C-labeled substrates using a thin layer chromatography assay essentially as described by Patricelli et al. (Biochemistry 38:9804-9812, 1999), except that enzyme assays were conducted at pH 7.2. […] Brain extracts from FAAH^−/− mice hydrolyzed anandamide and oleamide 50 to 100 times more slowly than brain extracts from the homozygous wild type mice.

Where [10] appears, read: FAAH−/− mice, 50 mg/kg ip, 60 min post-injection.
[11] abbreviates: FAAH−/− mice, 10 mg/kg, 10 min prior to anandamide 50 mg/kg.

On to `C=CCN1CC[C@]23c4c5ccc(O)c4O[C@H]2C(=O)CC[C@@]3(O)[C@H]1C5` [naloxone], for which, in the series on FAAH−/− and FAAH+/+ mice [1] (FAAH−/− mice, 2 mg/kg ip in saline), the “effect of pretreatment on activity due to anandamide” value is given as “failed to reduce any activity”.

Take `CCCCCc1cc(O)c2c(c1)OC(C)(C)[C@@H]1CCC(C)=C[C@@H]21` [THC, (−)-Δ^9-tetrahydrocannabinol]: in the series on FAAH−/− and FAAH+/+ mice [1] (FAAH−/− and FAAH+/+ mice (Table 2, not given)), the “dose response profiles in FAAH−/− versus FAAH+/+ mice, all behavioral assays tested” value was “nearly identical”.

In the case of `CCCCC/C=C\C/C=C\C/C=C\C/C=C\CCCC(=O)NCCO` [anandamide, N-arachidonoyl-ethanolamine], the “reduction in spontaneous activity” value in the series with FAAH−/− and FAAH+/+ mice [2] (FAAH−/− mice, 50 mg/kg ip) is given as 84±8%. Further, the ED50 is < 6.25 mg/kg in the series with FAAH−/− and FAAH+/+ mice [2] (Mus musculus, ip, read-out: ED50, hypomotility (locomotor activity)); 13 mg/kg with FAAH−/− and FAAH+/+ mice [3] (Mus musculus, ip, read-out: ED50, antinociception (tail-immersion)); 20 mg/kg in the series with FAAH−/− and FAAH+/+ mice [4] (Mus musculus, CL-11, ip, read-out: ED50, catalepsy); 11 mg/kg in the series on FAAH−/− and FAAH+/+ mice [5] (Mus musculus, ip, read-out: ED50, hypothermia (rectal temperature)). In addition, the “analgesia in the tail immersion test, maximum possible effect (MPE)” value with FAAH−/− and FAAH+/+ mice [3] (FAAH−/− mice, 50 mg/kg ip) was found to be 89±11%. Moreover, the “time by which catalepsy gradually dissipated” value in the series with FAAH−/− and FAAH+/+ mice [4] (FAAH−/− mice, 50 mg/kg) is ≤ 4 h. Further, in the series with FAAH−/− and FAAH+/+ mice [4] (FAAH−/− mice, 50 mg/kg), the “time post-treatment of most extreme catalepsy” value stood at 1 h. Moreover, the “cataleptic behavior in the bar test, share of the test group” value in the series with FAAH−/− and FAAH+/+ mice [4] (setting [10]) is reported as 88%. Moreover, the “time at which rectal temperature began to return to wild type values” in the series with FAAH−/− and FAAH+/+ mice [5] (FAAH−/− mice, 50 mg/kg) was ≤ 4 h. In addition, in the series with FAAH−/− and FAAH+/+ mice [5] (setting [10]), the “reduction in rectal temperature” value amounted to 7.9±0.3 °C. The “time at which the behavioral impact was readily detected” value in the series with FAAH−/− mice is “within five min of treatment”. For the same compound, the “time the mice remained immobile” value in the series with FAAH−/− mice (depending on dose) was 2 to 4 h. The “behavioral effects in FAAH+/+ mice” value with FAAH−/− and FAAH+/+ mice [1] (FAAH+/+ mice, 6.25 to 50 mg/kg ip) was “failed to produce any significant effects”. Also, the “state of treated FAAH−/− mice 24 hr after treatment” value in the series on FAAH−/− and FAAH+/+ mice [1] (FAAH−/− mice, 24 hr after treatment) is on record as “indistinguishable from FAAH^+/+ mice”. Besides, the “behavioral effects in mice expressing FAAH only in the nervous system” value in series [6] (FAAH-TG(+) (KO+) mice, 50 mg/kg) is reported as “sufficient to block the pharmacological effects; also recorded: dramatically reduced”. Besides, the “behavioral effects in mice lacking FAAH” value in [6] (FAAH-TG(−) (KO−) mice) is “displayed significant behavioral effects”. In addition, the half-life in vivo result in series [7] is “on the order of minutes”.

Regarding `Cc1c(C(=O)NN2CCCCC2)nn(-c2ccc(Cl)cc2Cl)c1-c1ccc(Cl)cc1` [SR141716A], the “effect of pretreatment on anandamide-induced hypomotility” value in the series on FAAH−/− and FAAH+/+ mice [2] (setting [11]) is reported as “completely blocked”. In addition, the “effect of pretreatment on anandamide-induced antinociception” value with FAAH−/− and FAAH+/+ mice [3] (setting [11]) is “completely blocked”. For the same compound, in the series with FAAH−/− and FAAH+/+ mice [4] (setting [11]), the “effect of pretreatment on anandamide-induced catalepsy” value was “completely blocked”. Moreover, the “effect of pretreatment on anandamide-induced hypothermia” value in the series on FAAH−/− and FAAH+/+ mice [5] (setting [11]) is reported as “completely blocked”. Also, the “change of hot plate response latency after treatment” value in [8] (FAAH+/+ (b22 also FAAH+/−) mice, listed as SR141617A) is given as “No significant change from baseline; also recorded: modest increases in their hot plate response latencies that failed to reach significance”. In addition, the “change of hot plate pain response latency after treatment” value in series [8] (FAAH−/− mice) is recorded as “dramatic reduction”. For the same compound, in the series with FAAH−/− and FAAH+/+ mice [1] (FAAH−/− mice, 10 mg/kg ip, 10 min prior to anandamide 50 mg/kg), the “effect of pretreatment on all behavioral effects of anandamide” value is listed as “completely blocked”.

As for `CCCCCCCC/C=C\CCCCCCCC(N)=O` [oleamide], in series [9], the “hydrolysis by FAAH−/− brain extracts, times more slowly than homozygous wild type brain extracts” value is reported as 50 to 100 times.

One may read the ED50 as the dose that gives a 50% effect, or the effect in half of the subjects.
